Experimental data published in PubChem BioAssay AID256 (DTP/NCI, 2004).
Toxic doses and inconclusive results are not listed. The calls were made as follows: active = survival T/C of 150% or more; inactive = T/C below 125% in these data.

Tested on: CD2F1 mice, L1210 leukemia ip, survival T/C
Test: NCI In Vivo Anticancer Drug Screen. Data for tumor model L1210 Leukemia (intraperitoneal) in CD2F1 (CDF1) mice
Settings: endpoint: mean survival time, higher = longer survival
Outline: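 Vehicle-treated tumor-bearing mice served as controls (C) for compound-treated mice (T). Reported figure is T divided by C.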

[1] = dose: 100.0 mg/kg/injection, schedule: Q01DX001 (ip), vehicle: saline with Tween-80
[2] = dose: 200.0 mg/kg/injection, schedule: Q01DX001 (ip), vehicle: saline with Tween-80
[3] = dose: 400.0 mg/kg/injection, schedule: Q01DX001 (ip), vehicle: saline with Tween-80
[4] = dose: 25.0 mg/kg/injection, schedule: Q04DX002 (ip), vehicle: saline with Tween-80
[5] = dose: 50.0 mg/kg/injection, schedule: Q04DX002 (ip), vehicle: saline with Tween-80
[6] = dose: 100.0 mg/kg/injection, schedule: Q01DX009 (ip), vehicle: saline with Tween-80
[7] = dose: 100.0 mg/kg/injection, schedule: Q04DX003 (ip), vehicle: saline with Tween-80
[8] = dose: 200.0 mg/kg/injection, schedule: Q01DX009 (ip), vehicle: saline with Tween-80
[9] = dose: 200.0 mg/kg/injection, schedule: Q04DX003 (ip), vehicle: saline with Tween-80
[10] = dose: 400.0 mg/kg/injection, schedule: Q04DX003 (ip), vehicle: saline with Tween-80

Measured: T/C

O=C(N/N=C\c1ccc(Cl)cc1)C(=O)N/N=C\c1ccc(Cl)cc1
inactive: [1] 106 % of control | [2] 92 % of control | [3] 89 % of control

NC(=O)CC(N)CO (stereo not drawn)
inactive: dose: 50.0 mg/kg/injection, schedule: Q01DX009 (ip), vehicle: saline 93 % of control | dose: 100.0 mg/kg/injection, schedule: Q01DX009 (ip), vehicle: saline 98 % of control | dose: 200.0 mg/kg/injection, schedule: Q01DX009 (ip), vehicle: saline 95 % of control | dose: 400.0 mg/kg/injection, schedule: Q01DX009 (ip), vehicle: saline 98 % of control

CNC(=S)NNC(=O)C(=O)NNC(=S)NC
inactive: [1] 98 % of control | [2] 98 % of control | [3] 97 % of control

CCCCCC(O)C(O)CC(O)C(O)CCCCCCCC(=O)O (stereo not drawn)
inactive: dose: 100.0 mg/kg/injection, schedule: Q04DX003 (ip), vehicle: saline 94 % of control | dose: 200.0 mg/kg/injection, schedule: Q04DX003 (ip), vehicle: saline 91 % of control | dose: 400.0 mg/kg/injection, schedule: Q04DX003 (ip), vehicle: saline 100 % of control

O=C(COc1cccc(Cl)c1)Nc1ccc(S(=O)(=O)F)cc1
inactive: [1] 97 % of control | [2] 95 % of control | [3] 91 % of control

C[P+]1(c2ccccc2)CCC(N)=C(C#N)C1 (stereo not drawn)
inactive: [4] 97 % of control | [5] 101 % of control | dose: 100.0 mg/kg/injection, schedule: Q04DX002 (ip), vehicle: saline with Tween-80 101 % of control

O=C1c2ccc([N+](=O)[O-])cc2-c2c1cccc2[N+](=O)[O-]
inactive: [4] 95 % of control | [5] 87 % of control

CCOC(=O)Nc1cc(NCCc2ccccc2)c([N+](=O)[O-])c(N)n1
inactive: dose: 100.0 mg/kg/injection, schedule: Q01DX001 (ip), vehicle: Klucel (hydroxypropylcellulose) (HPC) 91 % of control | dose: 200.0 mg/kg/injection, schedule: Q01DX001 (ip), vehicle: Klucel (hydroxypropylcellulose) (HPC) 94 % of control | dose: 400.0 mg/kg/injection, schedule: Q01DX001 (ip), vehicle: Klucel (hydroxypropylcellulose) (HPC) 86 % of control

CN(C)c1ccc(CN2CCCN(Cc3ccc(N(C)C)cc3)C2c2ccncc2)cc1
inactive: [6] 94 % of control | [7] 104 % of control | [8] 95 % of control | [9] 103 % of control | dose: 400.0 mg/kg/injection, schedule: Q01DX009 (ip), vehicle: saline with Tween-80 95 % of control | [10] 103 % of control

O=NO.O=NO.[NH-]C1CCCCC1[NH-].[Pd+2] (stereo not drawn)
inactive: dose: 3.13 mg/kg/injection, schedule: Q04DX003 (ip), vehicle: dextrose 92 % of control | dose: 6.25 mg/kg/injection, schedule: Q04DX003 (ip), vehicle: dextrose 93 % of control | dose: 12.5 mg/kg/injection, schedule: Q01DX001 (ip), vehicle: dextrose 95 % of control | dose: 12.5 mg/kg/injection, schedule: Q04DX003 (ip), vehicle: dextrose 98 % of control | dose: 25.0 mg/kg/injection, schedule: Q01DX001 (ip), vehicle: dextrose 94 % of control | dose: 50.0 mg/kg/injection, schedule: Q01DX001 (ip), vehicle: dextrose 91 % of control | dose: 50.0 mg/kg/injection, schedule: Q04DX003 (ip), vehicle: dextrose 95 % of control | dose: 100.0 mg/kg/injection, schedule: Q01DX001 (ip), vehicle: dextrose 109 % of control | dose: 100.0 mg/kg/injection, schedule: Q04DX003 (ip), vehicle: dextrose 100 % of control

COC(=O)C1OC(OC(C)=O)C(OC(C)=O)C(OC(C)=O)C1OC(C)=O (stereo not drawn)
inactive: dose: 75.0 mg/kg/injection, schedule: Q04DX003 (ip), vehicle: saline with Tween-80 98 % of control | dose: 150.0 mg/kg/injection, schedule: Q04DX003 (ip), vehicle: saline with Tween-80 98 % of control | dose: 300.0 mg/kg/injection, schedule: Q04DX003 (ip), vehicle: saline with Tween-80 92 % of control

c1ccc(P(c2ccccc2)c2ccccc2)cc1
inactive: dose: 50.0 mg/kg/injection, schedule: Q01DX009 (ip), vehicle: saline with Tween-80 96 % of control | [6] 100 % of control | [7] 100 % of control | [8] 98 % of control | [9] 100 % of control | [10] 93 % of control
